From ChEMBL document CHEMBL5465560, “Selectivity Literature for EUbOPEN Chemogenomic Library” (2024)

What was measured:
Aurora kinase B = Aurora kinase B (Homo sapiens, UniProt Q96GD4); test: Selectivity interaction (KinomeScan (DiscoverX)) EUB0001049a AURKB; settings: at 1 µM
[1] = biological target: Mitogen-activated protein kinase 7 (Homo sapiens) (UniProt Q13164); test: Selectivity interaction (KinomeScan (DiscoverX)) EUB0000666a MAPK7; settings: at 10 µM
[2] = biological target: Beta-2 adrenergic receptor (Homo sapiens, UniProt P07550); test: Selectivity interaction (Eurofins CEREP Diversity Profile (receptors and ion channels)) EUB0000279b ADRB2; settings: at 10 µM
[3] = biological target: 5'-AMP-activated protein kinase catalytic subunit alpha-1 (Homo sapiens, UniProt Q13131); test: Selectivity interaction (KinomeScan (DiscoverX)) EUB0001079a PRKAA1; settings: at 1 µM
[4] = biological target: Phosphatidylinositol 4-phosphate 5-kinase type-1 alpha (Homo sapiens) (UniProt Q99755); settings: at 10 µM
[5] = biological target: T1, TGF-beta receptor type-1 (Homo sapiens) (UniProt P36897); test: Selectivity interaction (Kinase panel (Invitrogen)) EUB0000639a TGFBR1; settings: at 200 nM
T1 sequence (whole entry): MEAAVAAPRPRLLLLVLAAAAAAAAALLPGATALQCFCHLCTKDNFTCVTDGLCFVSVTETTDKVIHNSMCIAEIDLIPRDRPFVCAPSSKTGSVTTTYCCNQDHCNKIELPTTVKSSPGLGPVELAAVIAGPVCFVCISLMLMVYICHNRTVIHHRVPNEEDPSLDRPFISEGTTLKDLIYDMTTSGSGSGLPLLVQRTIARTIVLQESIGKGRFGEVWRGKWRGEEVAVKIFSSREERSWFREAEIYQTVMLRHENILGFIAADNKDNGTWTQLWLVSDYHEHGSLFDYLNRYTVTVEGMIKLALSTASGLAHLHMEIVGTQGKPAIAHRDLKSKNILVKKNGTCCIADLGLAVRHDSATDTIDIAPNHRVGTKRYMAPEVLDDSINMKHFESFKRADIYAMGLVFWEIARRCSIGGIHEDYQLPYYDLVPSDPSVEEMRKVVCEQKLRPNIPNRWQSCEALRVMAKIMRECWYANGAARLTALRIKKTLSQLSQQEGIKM

[6] = biological target: T2, Ephrin type-A receptor 8 (Homo sapiens) (UniProt P29322); test: Selectivity interaction (KinomeScan (DiscoverX)) EUB0000045b EPHA8
T2 sequence (whole entry): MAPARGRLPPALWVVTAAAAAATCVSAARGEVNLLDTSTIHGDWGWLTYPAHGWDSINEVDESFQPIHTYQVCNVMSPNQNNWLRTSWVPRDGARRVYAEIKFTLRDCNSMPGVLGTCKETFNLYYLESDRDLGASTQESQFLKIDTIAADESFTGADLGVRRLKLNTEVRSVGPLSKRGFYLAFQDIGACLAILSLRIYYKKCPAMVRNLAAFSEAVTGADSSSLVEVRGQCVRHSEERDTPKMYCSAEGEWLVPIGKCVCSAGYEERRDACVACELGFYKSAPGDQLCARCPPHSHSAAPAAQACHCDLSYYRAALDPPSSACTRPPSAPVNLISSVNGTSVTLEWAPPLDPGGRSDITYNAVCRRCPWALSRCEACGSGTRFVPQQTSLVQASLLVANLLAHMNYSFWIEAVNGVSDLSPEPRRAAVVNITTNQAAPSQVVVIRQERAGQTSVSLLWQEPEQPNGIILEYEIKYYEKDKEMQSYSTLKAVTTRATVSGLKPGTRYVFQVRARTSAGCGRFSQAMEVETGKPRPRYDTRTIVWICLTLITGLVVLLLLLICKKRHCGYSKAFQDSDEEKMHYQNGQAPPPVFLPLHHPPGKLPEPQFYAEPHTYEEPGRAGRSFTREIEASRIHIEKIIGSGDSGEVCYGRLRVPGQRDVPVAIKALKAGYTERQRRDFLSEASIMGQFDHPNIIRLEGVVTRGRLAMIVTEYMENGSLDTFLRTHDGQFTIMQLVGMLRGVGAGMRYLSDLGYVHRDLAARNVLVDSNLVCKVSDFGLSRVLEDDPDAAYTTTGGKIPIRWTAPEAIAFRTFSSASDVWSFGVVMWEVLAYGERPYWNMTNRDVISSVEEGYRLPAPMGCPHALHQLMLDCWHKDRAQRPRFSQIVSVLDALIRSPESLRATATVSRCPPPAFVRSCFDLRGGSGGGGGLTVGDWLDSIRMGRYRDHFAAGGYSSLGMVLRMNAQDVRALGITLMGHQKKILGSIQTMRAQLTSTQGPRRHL

[7] = biological target: Protein-tyrosine kinase 6 (Homo sapiens, UniProt Q13882); settings: at 10 µM
Activated CDC42 kinase 1 = Activated CDC42 kinase 1 (Homo sapiens, UniProt Q07912); settings: at 10 µM
[8] = biological target: T3, Dual specificity mitogen-activated protein kinase kinase 5 (Homo sapiens) (UniProt Q13163); test: Selectivity interaction (KinomeScan (DiscoverX)) EUB0000695a MAP2K5; settings: at 100 nM
T3 sequence (whole entry): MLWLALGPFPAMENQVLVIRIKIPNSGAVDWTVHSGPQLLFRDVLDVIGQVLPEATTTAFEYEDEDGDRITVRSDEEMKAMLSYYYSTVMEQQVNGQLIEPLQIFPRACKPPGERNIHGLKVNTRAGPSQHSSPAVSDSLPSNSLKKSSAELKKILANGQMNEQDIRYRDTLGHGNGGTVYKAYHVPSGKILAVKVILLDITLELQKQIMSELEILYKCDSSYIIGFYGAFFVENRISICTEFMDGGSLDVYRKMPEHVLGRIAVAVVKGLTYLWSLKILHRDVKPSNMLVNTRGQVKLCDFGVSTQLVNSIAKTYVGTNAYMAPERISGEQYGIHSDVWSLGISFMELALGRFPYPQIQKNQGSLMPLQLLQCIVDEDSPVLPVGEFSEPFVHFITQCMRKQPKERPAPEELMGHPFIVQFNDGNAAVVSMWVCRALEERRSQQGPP

[9] = biological target: ALK tyrosine kinase receptor (Homo sapiens, UniProt Q9UM73); test: Selectivity interaction (KinomeScan (DiscoverX)) EUB0000607a ALK; settings: at 10 µM
[10] = biological target: Mitogen-activated protein kinase kinase kinase 11 (Homo sapiens) (UniProt Q16584); test: Selectivity interaction (KinomeScan (DiscoverX)) EUB0000607a MAP3K11; settings: at 10 µM
[11] = biological target: Phosphatidylinositol 4,5-bisphosphate 3-kinase catalytic subunit gamma isoform (Homo sapiens) (UniProt P48736); test: Selectivity interaction (Adapta Assay) EUB0001632a PIK3CG; settings: at 10 µM

Chain of Beta-2 adrenergic receptor (P07550 whole entry, looked up): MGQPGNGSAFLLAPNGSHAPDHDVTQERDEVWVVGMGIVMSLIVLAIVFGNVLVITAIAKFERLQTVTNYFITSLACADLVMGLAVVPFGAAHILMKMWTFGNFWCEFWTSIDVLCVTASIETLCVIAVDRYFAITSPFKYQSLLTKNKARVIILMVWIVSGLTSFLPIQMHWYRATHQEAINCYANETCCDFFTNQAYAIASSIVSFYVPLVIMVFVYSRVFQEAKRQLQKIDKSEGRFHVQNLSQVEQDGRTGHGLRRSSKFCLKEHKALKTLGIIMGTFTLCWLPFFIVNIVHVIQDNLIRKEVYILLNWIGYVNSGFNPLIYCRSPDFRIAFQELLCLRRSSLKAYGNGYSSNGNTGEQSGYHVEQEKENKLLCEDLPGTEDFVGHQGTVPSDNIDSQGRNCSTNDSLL
Chain of Phosphatidylinositol 4-phosphate 5-kinase type-1 alpha (Homo sapiens) (Q99755 whole entry): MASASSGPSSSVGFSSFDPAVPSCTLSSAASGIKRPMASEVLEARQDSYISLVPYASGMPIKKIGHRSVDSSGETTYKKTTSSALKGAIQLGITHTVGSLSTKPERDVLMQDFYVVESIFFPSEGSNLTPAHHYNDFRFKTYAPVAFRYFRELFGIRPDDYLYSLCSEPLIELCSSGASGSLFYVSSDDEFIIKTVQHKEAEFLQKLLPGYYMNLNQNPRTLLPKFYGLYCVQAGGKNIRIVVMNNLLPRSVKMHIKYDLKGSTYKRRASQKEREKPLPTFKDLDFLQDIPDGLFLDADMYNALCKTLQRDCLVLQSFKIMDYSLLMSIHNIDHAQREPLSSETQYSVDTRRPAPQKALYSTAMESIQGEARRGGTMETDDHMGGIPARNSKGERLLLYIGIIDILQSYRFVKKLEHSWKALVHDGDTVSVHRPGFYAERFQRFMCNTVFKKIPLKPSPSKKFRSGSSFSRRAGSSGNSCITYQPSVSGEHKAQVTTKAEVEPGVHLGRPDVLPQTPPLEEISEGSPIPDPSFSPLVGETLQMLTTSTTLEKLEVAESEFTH
Chain of Protein-tyrosine kinase 6 (Q13882 whole entry, looked up): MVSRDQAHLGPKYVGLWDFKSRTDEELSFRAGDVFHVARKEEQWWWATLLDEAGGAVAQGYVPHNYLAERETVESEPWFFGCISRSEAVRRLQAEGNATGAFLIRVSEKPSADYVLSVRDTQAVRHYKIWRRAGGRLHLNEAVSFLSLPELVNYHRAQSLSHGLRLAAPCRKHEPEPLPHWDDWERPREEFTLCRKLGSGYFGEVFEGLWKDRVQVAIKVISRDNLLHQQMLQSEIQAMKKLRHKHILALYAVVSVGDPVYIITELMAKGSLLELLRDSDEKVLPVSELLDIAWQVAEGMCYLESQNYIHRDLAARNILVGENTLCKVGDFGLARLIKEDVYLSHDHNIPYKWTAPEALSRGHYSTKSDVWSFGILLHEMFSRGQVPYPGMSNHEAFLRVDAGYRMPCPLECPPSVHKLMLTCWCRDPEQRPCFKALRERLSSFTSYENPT
Chain of Aurora kinase B (Q96GD4 whole entry): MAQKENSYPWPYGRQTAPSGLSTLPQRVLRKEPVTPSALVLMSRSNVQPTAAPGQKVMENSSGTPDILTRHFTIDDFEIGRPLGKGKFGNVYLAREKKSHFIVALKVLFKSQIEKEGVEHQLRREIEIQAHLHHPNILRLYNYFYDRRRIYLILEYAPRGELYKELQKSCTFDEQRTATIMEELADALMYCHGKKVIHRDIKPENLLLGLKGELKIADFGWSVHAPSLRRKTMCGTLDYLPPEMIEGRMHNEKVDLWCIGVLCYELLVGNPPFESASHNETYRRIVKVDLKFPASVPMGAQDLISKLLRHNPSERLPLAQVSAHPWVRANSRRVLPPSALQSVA
Chain of Mitogen-activated protein kinase 7 (Homo sapiens) (Q13164 2-816 limits assumed): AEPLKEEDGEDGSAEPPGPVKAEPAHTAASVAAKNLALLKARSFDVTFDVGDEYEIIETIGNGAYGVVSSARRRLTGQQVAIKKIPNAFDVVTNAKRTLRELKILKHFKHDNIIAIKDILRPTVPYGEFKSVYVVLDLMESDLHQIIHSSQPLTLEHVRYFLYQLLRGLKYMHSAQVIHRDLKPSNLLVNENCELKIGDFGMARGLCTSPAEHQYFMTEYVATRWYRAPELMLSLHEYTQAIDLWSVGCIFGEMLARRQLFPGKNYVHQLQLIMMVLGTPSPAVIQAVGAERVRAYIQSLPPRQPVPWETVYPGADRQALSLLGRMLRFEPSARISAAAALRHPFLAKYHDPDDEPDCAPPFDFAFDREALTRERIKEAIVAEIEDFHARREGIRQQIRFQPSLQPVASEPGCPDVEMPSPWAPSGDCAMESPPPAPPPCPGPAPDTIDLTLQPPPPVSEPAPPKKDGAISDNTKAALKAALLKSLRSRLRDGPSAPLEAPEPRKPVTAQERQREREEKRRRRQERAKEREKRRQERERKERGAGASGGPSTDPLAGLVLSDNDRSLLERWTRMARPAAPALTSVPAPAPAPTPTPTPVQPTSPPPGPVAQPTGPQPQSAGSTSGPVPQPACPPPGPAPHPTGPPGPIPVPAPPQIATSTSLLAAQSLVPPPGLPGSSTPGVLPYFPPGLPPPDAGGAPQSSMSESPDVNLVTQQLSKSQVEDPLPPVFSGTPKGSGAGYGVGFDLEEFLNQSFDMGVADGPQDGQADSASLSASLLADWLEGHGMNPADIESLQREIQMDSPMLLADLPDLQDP
Chain of Mitogen-activated protein kinase kinase kinase 11 (Homo sapiens) (Q16584 whole entry, looked up, canonical isoform): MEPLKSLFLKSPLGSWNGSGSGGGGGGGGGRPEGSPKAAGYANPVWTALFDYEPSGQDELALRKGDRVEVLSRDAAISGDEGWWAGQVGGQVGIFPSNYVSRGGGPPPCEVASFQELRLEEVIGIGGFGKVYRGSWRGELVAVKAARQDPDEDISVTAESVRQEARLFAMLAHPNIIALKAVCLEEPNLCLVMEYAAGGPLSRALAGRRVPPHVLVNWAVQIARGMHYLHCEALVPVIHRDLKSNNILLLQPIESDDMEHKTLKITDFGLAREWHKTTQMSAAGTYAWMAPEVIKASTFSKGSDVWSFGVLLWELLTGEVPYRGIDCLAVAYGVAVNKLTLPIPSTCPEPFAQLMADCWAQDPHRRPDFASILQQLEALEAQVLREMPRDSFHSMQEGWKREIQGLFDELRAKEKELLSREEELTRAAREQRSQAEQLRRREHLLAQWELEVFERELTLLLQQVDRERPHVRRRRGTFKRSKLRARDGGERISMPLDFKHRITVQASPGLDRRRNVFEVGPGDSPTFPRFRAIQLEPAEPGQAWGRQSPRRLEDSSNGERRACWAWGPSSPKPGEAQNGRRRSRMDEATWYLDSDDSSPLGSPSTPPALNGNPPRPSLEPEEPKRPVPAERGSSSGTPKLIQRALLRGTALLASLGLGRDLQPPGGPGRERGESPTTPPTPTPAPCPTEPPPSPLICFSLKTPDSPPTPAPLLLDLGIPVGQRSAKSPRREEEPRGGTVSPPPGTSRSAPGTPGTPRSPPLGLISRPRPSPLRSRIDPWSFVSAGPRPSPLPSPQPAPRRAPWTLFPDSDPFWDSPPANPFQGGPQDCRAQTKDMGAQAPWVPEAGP
Chain of ALK tyrosine kinase receptor (Q9UM73 19-1620 limits assumed): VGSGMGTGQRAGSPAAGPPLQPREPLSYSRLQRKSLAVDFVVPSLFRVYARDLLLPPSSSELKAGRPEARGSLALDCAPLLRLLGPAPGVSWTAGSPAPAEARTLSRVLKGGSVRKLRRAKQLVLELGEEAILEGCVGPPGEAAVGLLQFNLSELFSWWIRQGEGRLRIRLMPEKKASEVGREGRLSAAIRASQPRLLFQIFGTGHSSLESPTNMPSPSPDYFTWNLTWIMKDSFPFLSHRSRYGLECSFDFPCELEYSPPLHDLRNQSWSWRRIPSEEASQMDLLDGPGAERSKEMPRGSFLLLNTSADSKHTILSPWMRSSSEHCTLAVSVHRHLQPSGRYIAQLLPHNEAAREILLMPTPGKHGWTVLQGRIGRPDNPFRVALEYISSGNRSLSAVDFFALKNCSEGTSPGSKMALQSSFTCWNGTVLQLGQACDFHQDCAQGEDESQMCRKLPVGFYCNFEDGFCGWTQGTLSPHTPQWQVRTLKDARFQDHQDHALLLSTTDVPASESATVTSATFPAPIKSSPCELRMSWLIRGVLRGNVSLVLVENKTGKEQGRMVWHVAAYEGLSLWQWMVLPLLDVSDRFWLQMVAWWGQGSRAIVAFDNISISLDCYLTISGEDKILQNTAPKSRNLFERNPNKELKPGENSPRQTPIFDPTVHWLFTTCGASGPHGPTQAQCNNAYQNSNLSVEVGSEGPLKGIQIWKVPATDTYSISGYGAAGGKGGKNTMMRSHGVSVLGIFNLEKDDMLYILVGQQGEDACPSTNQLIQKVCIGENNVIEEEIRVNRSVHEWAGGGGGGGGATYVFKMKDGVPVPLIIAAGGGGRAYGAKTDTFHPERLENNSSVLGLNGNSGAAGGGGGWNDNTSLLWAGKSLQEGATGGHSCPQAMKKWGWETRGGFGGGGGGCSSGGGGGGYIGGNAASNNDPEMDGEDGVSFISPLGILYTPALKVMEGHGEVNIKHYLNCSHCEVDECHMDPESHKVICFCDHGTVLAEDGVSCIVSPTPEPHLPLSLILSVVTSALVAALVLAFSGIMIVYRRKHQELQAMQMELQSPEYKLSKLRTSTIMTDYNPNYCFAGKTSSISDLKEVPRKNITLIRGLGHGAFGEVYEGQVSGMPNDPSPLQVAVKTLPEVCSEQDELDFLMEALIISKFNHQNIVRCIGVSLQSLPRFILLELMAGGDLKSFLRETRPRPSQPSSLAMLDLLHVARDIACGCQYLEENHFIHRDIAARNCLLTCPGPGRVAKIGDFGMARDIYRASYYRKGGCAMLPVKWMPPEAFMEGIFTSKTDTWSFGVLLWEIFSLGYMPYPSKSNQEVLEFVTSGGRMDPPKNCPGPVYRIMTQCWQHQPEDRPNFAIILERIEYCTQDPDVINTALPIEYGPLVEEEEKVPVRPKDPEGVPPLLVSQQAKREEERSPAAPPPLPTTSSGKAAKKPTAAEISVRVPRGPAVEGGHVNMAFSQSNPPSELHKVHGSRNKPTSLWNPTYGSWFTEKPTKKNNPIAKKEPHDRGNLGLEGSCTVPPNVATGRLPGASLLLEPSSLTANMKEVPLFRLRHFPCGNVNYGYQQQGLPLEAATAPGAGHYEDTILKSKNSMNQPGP

Compound: COc1cc(Nc2nc(C)cc(-c3cnn4nc(OC)ccc34)n2)cc(C(F)(F)F)c1
- % of control (Aurora kinase B): 85%

Compound: O=C(NOC[C@H](O)CO)c1ccc(F)c(F)c1Nc1ccc(I)cc1F
- % of control [1]: 88%

Compound: CC(=O)c1cc(-c2ccccc2OCC2CC2)c2ncccn12
- % of control [2]: 99%

Compound: Nc1cnc(N2CCc3cc(S(=O)(=O)Nc4c(F)cc(Cl)cc4F)cc(N4CCCC4=O)c32)nc1 [TP-020n]
- % of control [3]: 100%

Compound: CCN(CC)CCCCNc1ncc2cc(-c3cc(OC)cc(OC)c3)c(NC(=O)NC(C)(C)C)nc2n1
- % of control [4]: 100%

Compound: CC[C@@H]1[C@H](F)C(=O)N[C@@H]1COc1nccc2cc(C(N)=O)c(OC)cc12 [ZIMLOVISERTIB]
- % of inhibition [5]: 27.1%

Compound: C=CC(=O)Nc1cc(-n2c(=O)ccc3cnc4ccc(-c5ccc(NS(C)(=O)=O)cc5)cc4c32)ccc1C
- % of control ([6]; at 1 µM): 100%
- % of control ([6]; at 10 µM): 76%

Compound: Cc1cc([C@@H](C)Nc2ccccc2C(=O)O)c2nc(N3CCOCC3)cc(=O)n2c1 [AZD-6482]
- % of control [7]: 75%
- % of control (Activated CDC42 kinase 1): 100%

Compound: Cc1cc(F)c(C(=O)Nc2cccc(-c3nncn3C(C)C)n2)cc1-n1cnc(C2CC2)c1
- % of control [8]: 94%

Compound: CNC(=O)Nc1ccc(-c2nc(N3CC4CCC(C3)O4)c3cnn(C4CCC5(CC4)OCCO5)c3n2)cc1
- % of control [9]: 42%
- % of control [10]: 100%

Compound: Cn1cc(-n2cnc3c(NCc4nc5cc(Cl)c(Cl)cc5[nH]4)nc(N4CCOCC4)nc32)cn1
- % of inhibition [11]: 29.5%
